Here are results for 16 compounds from patent publication US20210122730A1, “GLUCOCORTICOID RECEPTOR MODULATORS” (ORIC Pharmaceuticals, Inc., priority 2017, published 2021).

pIC50: −log10 of the molar value.

For the experiment, the target named is T1, GR (Homo sapiens, UniProt P04150).
T1 construct: expressed in transfected cells; host or cells: CHO-K1
T1 sequence (P04150 1-777): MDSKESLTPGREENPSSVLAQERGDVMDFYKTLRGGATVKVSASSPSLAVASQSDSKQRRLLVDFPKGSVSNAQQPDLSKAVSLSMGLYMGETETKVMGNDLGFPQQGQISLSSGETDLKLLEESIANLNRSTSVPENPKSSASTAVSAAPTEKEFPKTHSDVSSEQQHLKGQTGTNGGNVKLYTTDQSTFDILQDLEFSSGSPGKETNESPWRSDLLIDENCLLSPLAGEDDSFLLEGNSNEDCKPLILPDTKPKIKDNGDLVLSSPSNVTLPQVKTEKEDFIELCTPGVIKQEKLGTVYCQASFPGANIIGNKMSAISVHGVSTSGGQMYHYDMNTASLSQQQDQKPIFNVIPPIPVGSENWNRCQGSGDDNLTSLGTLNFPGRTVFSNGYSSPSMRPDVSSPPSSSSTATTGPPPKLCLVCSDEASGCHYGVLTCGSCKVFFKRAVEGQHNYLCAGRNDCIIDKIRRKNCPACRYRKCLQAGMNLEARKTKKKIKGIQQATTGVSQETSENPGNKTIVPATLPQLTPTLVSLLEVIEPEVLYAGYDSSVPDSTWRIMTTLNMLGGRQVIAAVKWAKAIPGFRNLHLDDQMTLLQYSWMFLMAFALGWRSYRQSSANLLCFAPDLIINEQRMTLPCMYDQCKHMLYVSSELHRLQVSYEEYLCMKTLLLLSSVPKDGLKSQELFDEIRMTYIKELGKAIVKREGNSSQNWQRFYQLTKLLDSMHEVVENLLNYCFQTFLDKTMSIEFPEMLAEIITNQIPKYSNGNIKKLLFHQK
The experiment in a line: In Vitro GR Luciferase Reporter Assay (antagonist mode, CHO-K1-GR-MMTV-Luc reporter cells). The format is cell-based. As to conditions: antagonist mode, 10 nM Dexamethasone. Put shortly:
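CHO-K1-GR-MMTV-Luc cells in phenol red-free DMEM with 10% CSS, stimulated with 10 nM dexamethasone (final) and treated with 8-point 1:5 compound dilutions for about 18-24 h at 37° C. Luciferase measured by OneGlo luminescence; IC50 derived for inhibition of GR activity.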
A general note: A reporter such as luciferase makes a cellular process visible.

By pIC50 is commonly meant the negative decadic logarithm of the IC50, by convention in mol/L. A high value points to a low IC50. With `COCCOCCN([C@H]1CCC2=Cc3c(cnn3-c3ccc(F)cc3)C[C@]2(C(=O)c2ncc(C(F)(F)F)s2)C1)S(=O)(=O)c1ccc(F)cc1` [Example 391, 4-fluoro-N-((4aS,6S)-1-(4-fluorophenyl)-4a-(5-(trifluoromethyl)thiazole-2-carbonyl)-4,4a,5,6,7,8-hexahydro-1H-benzo[f]indazol-6-yl)-N-(2-(2-methoxyethoxy)ethyl)benzene-sulfonamide], the pIC50 is no less than 7.00.

As for `Cn1cnc(S(=O)(=O)N(CCF)[C@H]2CCC3=Cc4c(cnn4-c4ccc(F)cc4)C[C@]3(C(=O)c3cc(F)ccn3)C2)n1` [Example 392, N-(2-fluoroethyl)-N-((4aS,6S)-1-(4-fluorophenyl)-4a-(4-fluoropicolinoyl)-4,4a,5,6,7,8-hexahydro-1H-benzo[f]indazol-6-yl)-1-methyl-1H-1,2,4-triazole-3-sulfonamide], the pIC50 was no less than 7.00.

Consider `Cn1cnc(S(=O)(=O)N(CCF)[C@H]2CCC3=Cc4c(cnn4-c4ccc(F)cc4)C[C@]3(C(=O)c3cc(Cl)ccn3)C2)n1` [Example 393, N-((4aS,6S)-4a-(4-chloropicolinoyl)-1-(4-fluorophenyl)-4,4a,5,6,7,8-hexahydro-1H-benzo[f]indazol-6-yl)-N-(2-fluoroethyl)-1-methyl-1H-1,2,4-triazole-3-sulfonamide], for which the pIC50 is no less than 7.00.

On to `Cn1cc(S(=O)(=O)N(CCF)[C@H]2CCC3=Cc4c(cnn4-c4ccc(F)cc4)C[C@]3(C(=O)c3ncc(C(F)(F)F)s3)C2)nn1` [Example 394, N-(2-fluoroethyl)-N-((4aS,6S)-1-(4-fluorophenyl)-4a-(5-(trifluoromethyl)thiazole-2-carbonyl)-4,4a,5,6,7,8-hexahydro-1H-benzo[f]indazol-6-yl)-1-methyl-1H-1,2,3-triazole-4-sulfonamide], for which the negative-log IC50 (pIC50) is no less than 7.00.

`Cn1cc(S(=O)(=O)N(CCF)[C@H]2CCC3=Cc4c(cnn4-c4ccc(F)cc4)C[C@]3(C(=O)c3cc(C(F)(F)F)ccn3)C2)nn1` [Example 395, N-(2-fluoroethyl)-N-((4aS,6S)-1-(4-fluorophenyl)-4a-(4-(trifluoromethyl)picolinoyl)-4,4a,5,6,7,8-hexahydro-1H-benzo[f]indazol-6-yl)-1-methyl-1H-1,2,3-triazole-4-sulfonamide] showed a negative-log IC50 (pIC50) of no less than 7.00.

As for `Cn1cc(S(=O)(=O)N(CCF)[C@H]2CCC3=Cc4c(cnn4-c4ccc(F)cc4)C[C@]3(C(=O)c3ncc(C(F)(F)F)s3)C2)cn1` [Example 396, N-(2-fluoroethyl)-N-((4aS,6S)-1-(4-fluorophenyl)-4a-(5-(trifluoromethyl)thiazole-2-carbonyl)-4,4a,5,6,7,8-hexahydro-1H-benzo[f]indazol-6-yl)-1-methyl-1H-pyrazole-4-sulfonamide], the pIC50 is no less than 7.00.

For `Cn1ccc(S(=O)(=O)N(CCF)[C@H]2CCC3=Cc4c(cnn4-c4ccc(F)cc4)C[C@]3(C(=O)c3cc(F)ccn3)C2)n1` [Example 397, N-(2-fluoroethyl)-N-((4aS,6S)-1-(4-fluorophenyl)-4a-(4-fluoropicolinoyl)-4,4a,5,6,7,8-hexahydro-1H-benzo[f]indazol-6-yl)-1-methyl-1H-pyrazole-3-sulfonamide], the pIC50 was no less than 7.00.

As for `COCCN([C@H]1CCC2=Cc3c(cnn3-c3ccc(F)cc3)C[C@]2(C(=O)c2ncc(C(F)(F)F)s2)C1)S(=O)(=O)c1ncn(C)n1` [Example 398, N-((4aS,6S)-1-(4-fluorophenyl)-4a-(5-(trifluoromethyl)thiazole-2-carbonyl)-4,4a,5,6,7,8-hexahydro-1H-benzo[f]indazol-6-yl)-N-(2-methoxyethyl)-1-methyl-1H-1,2,4-triazole-3-sulfonamide], the negative logarithm of the IC50 (pIC50) was no less than 7.00.

Regarding `Cn1ccc(S(=O)(=O)N(C2CC2)[C@H]2CCC3=Cc4c(cnn4-c4ccc(F)nc4)C[C@]3(C(=O)c3ncc(C(F)(F)F)s3)C2)n1` [Example 399, N-cyclopropyl-N-((4aS,6S)-1-(6-fluoropyridin-3-yl)-4a-(5-(trifluoromethyl)thiazole-2-carbonyl)-4,4a,5,6,7,8-hexahydro-1H-benzo[f]indazol-6-yl)-1-methyl-1H-pyrazole-3-sulfonamide], the pIC50 was no less than 7.00.

`Cn1ccc(S(=O)(=O)N(CC(=O)OC(C)(C)C)[C@H]2CCC3=Cc4c(cnn4-c4ccc(F)cc4)C[C@]3(C(=O)c3cc(C(F)(F)F)ccn3)C2)n1` [Example 400, tert-butyl N-((4aS,6S)-1-(4-fluorophenyl)-4a-(4-(trifluoromethyl)picolinoyl)-4,4a,5,6,7,8-hexahydro-1H-benzo[f]indazol-6-yl)-N-((1-methyl-1H-pyrazol-3-yl)sulfonyl)glycinate] gave a pIC50 of no less than 7.00.

Take `Cn1ccc(S(=O)(=O)N(CC(=O)O)[C@H]2CCC3=Cc4c(cnn4-c4ccc(F)cc4)C[C@]3(C(=O)c3cc(C(F)(F)F)ccn3)C2)n1` [Example 401, N-((4aS,6S)-1-(4-fluorophenyl)-4a-(4-(trifluoromethyl)picolinoyl)-4,4a,5,6,7,8-hexahydro-1H-benzo[f]indazol-6-yl)-N-((1-methyl-1H-pyrazol-3-yl)sulfonyl)glycine]: the pIC50 is 6.00 to 7.00.

For the compound `Cn1ccc(S(=O)(=O)N(C2CC2)[C@H]2CCC3=Cc4c(cnn4-c4ccc(F)nc4)C[C@]3(C(=O)c3cc(C(F)(F)F)ccn3)C2)n1` [Example 402, N-cyclopropyl-N-((4aS,6S)-1-(6-fluoropyridin-3-yl)-4a-(4-(trifluoromethyl)picolinoyl)-4,4a,5,6,7,8-hexahydro-1H-benzo[f]indazol-6-yl)-1-methyl-1H-pyrazole-3-sulfonamide], the negative logarithm of the IC50 (pIC50) is no less than 7.00.

With `Cn1ccc(S(=O)(=O)N(CCF)[C@H]2CCC3=Cc4c(cnn4-c4ccc(F)cc4)C[C@]3(C(=O)c3cc(Cl)ccn3)C2)n1` [Example 403, N-((4aS,6S)-4a-(4-chloropicolinoyl)-1-(4-fluorophenyl)-4,4a,5,6,7,8-hexahydro-1H-benzo[f]indazol-6-yl)-N-(2-fluoroethyl)-1-methyl-1H-pyrazole-3-sulfonamide], the pIC50 was no less than 7.00.

In turn, `COCCOCCN([C@H]1CCC2=Cc3c(cnn3-c3ccc(F)cc3)C[C@]2(C(=O)c2cc(C(F)(F)F)ccn2)C1)S(=O)(=O)c1ccc(F)cc1` [Example 404, 4-fluoro-N-((4aS,6S)-1-(4-fluorophenyl)-4a-(4-(trifluoromethyl)picolinoyl)-4,4a,5,6,7,8-hexahydro-1H-benzo[f]indazol-6-yl)-N-(2-(2-methoxyethoxy)ethyl)benzene-sulfonamide] had a negative-log IC50 (pIC50) of no less than 7.00.

On to `O=C(c1ncc(C(F)(F)F)s1)[C@]12Cc3cnn(-c4ccc(F)cc4)c3C=C1CC[C@H](N(CC(F)F)S(=O)(=O)c1ccc(F)cc1)C2` [Example 405, N-(2,2-difluoroethyl)-4-fluoro-N-((4aS,6S)-1-(4-fluorophenyl)-4a-(5-(trifluoromethyl)thiazole-2-carbonyl)-4,4a,5,6,7,8-hexahydro-1H-benzo[f]indazol-6-yl)benzenesulfonamide], for which the pIC50 is no less than 7.00.

Turning to `Cn1cc(S(=O)(=O)N(C2CC(F)(F)C2)[C@H]2CCC3=Cc4c(cnn4-c4ccc(F)cc4)C[C@]3(C(=O)c3ncc(C(F)(F)F)s3)C2)cn1` [Example 406, N-(3,3-difluorocyclobutyl)-N-((4aS,6S)-1-(4-fluorophenyl)-4a-(5-(trifluoromethyl)thiazole-2-carbonyl)-4,4a,5,6,7,8-hexahydro-1H-benzo[f]indazol-6-yl)-1-methyl-1H-pyrazole-4-sulfonamide], the pIC50 is no less than 7.00.
